The record followed here is patent US5714483A, “Antitussive” (TORAY Industries, Inc., priority 1992, dated 1998).

Assay [1] has as its system capsaicin-induced cough. The assay can be described thus: Capsaicin-induced cough in rats (30 μM capsaicin), plethysmography, Examples 1 and 2. It is filed as in vivo, SD male rats. Here is the method: (§1) SD male rats (body weight: 250-350 g) were used under non-anesthesic condition.
(§2) Respiration and cough were measured by plestimography. The body plestimograph used has a plastic cylinder having a diameter of 7.5 cm and a length of 15 cm, and consists of a cylindrical part in which the body of the rat is inserted and a cap part which covers the head. In the upper portion of the cylinder, a vent was formed so as to connect a respiration flow meter. To tightly close the cylinder, a collar made of rubber or celluloid was put on the neck of the rat. In the cap part, an inlet for introducing capsaicin and a ventilating hole were formed. The respiration of the rats was measured by measuring the movement of the thorax due to the respiration in terms of the change in the inner volume of the cylinder by the respiration flow meter. […] This large change is distinguished from the normal respiration and measured by the respiration flow meter. The number of this large change was measured, which is defined as the number of cough.
Capsaicin (30 μM) was converted to mist by ultrasonic nebulizer and the mist was sent by an artificial respirator into the cap covering the head of the rat through a silicone tube, thereby inducing cough. Capsaicin was transferred by the artificial respirator for inhalation at a dose of 20 ml/time and at a rate of 30 times/min.
The rats were made to inhale capsaicin for 5 minutes at 15 minutes before the administration of the test compound. Induction of cough was confirmed during the inhalation of capsaicin. The rats were made to inhale capsaicin for 5 minutes at 15, 60 and 120 minutes after administration of the compound, and the number of induced cough was measured during this period. The antitussive effect was evaluated in terms of the suppression rate, that is, the ratio of the number of cough after administration of the test compound to the number of cough before administration of the compound. The measured suppression rates were compared using Mann Whiteny U-test. If there is a difference at significant level (P<0.05), the difference was evaluated as significant. Capsaicin was dissolved in 10% ethanol and 10% Tween 80 and diluted with saline. The test compound was dissolved in saline. In any case, the test compound was intraperitoneally administered.

Assay [2] relates to capsaicin-induced cough. Kind of assay: Capsaicin-induced cough in rats (60 μM capsaicin), ED50, Example 3. It is filed as in vivo, SD male rats. As to conditions: Rattus norvegicus, ip, 0.5 h; i.p.; capsaicin 60 μM, 30 minutes after administration; read-out: ED50 (dose at which the number of cough is suppressed to half). On the procedure:
as §1, §2
Capsaicin (60 μM) was converted to mist by ultrasonic nebulizer and the mist was sent by an artificial respirator into the cap covering the head of the rat through a silicone tube, thereby inducing cough. Capsaicin was transferred by the artificial respirator for inhalation at a dose of 10 ml/time and at a rate of 70 times/min.
The rats were made to inhale capsaicin for 5 minutes at 270 minutes before the administration of the test compound. Induction of cough was confirmed during the inhalation of capsaicin. The rats were made to inhale capsaicin for 5 minutes at 30 minutes after administration of the test compound, and the number of induced cough during this period was measured. The antitussive effect was evaluated in terms of the suppression rate, that is, the ratio of the number of cough after administration of the test compound to the number of cough before administration of the test compound. Capsaicin was dissolved in saline. The test compounds were dissolved in aqueous 10% DMSO solution. In any case, the test compounds were intraperitoneally administered. The effectiveness of each of the test compounds is shown in terms of ED50 value which means the dose at which the number of cough is suppressed to half.

Take `Oc1ccc2c3c1O[C@H]1c4[nH]c5ccccc5c4C[C@@]4(O)[C@@H](C2)N(CC2CC2)CC[C@]314` [Compound 1, 17-cyclopropylmethyl-6,7-didehydro-4,5α-epoxy-3,14β-dihydroxy-6,7,2',3'-indolomorphinan]: the “dose-dependence of antitussive effect” value in assay [1] (0.03 mg/kg to 1 mg/kg, i.p., 15 minutes after administration) was “dose-dependent antitussive effect”. In assay [1] (1 mg/kg, i.p.), the antitussive effect entry is reported as “a significant antitussive effect was observed” and the “peak of the antitussive effect (time after administration)” value is 15 min. Also, the “antitussive effect at 120 minutes compared with saline group” value in assay [1] (1 mg/kg, i.p., 120 minutes after administration, vs saline group) is given as “a significant antitussive effect was observed even 120 minutes after the administration”. Further, the “antitussive effect compared with morphine (0.3 mg/kg)” value in assay [1] (Compound 1 1 mg/kg vs morphine 0.3 mg/kg, i.p., 15 minutes after administration) is listed as “substantially identical to that by morphine (0.3 mg/kg)”.

Consider `Oc1ccc2c3c1O[C@H]1c4[nH]c5c6c(ccc5c4C[C@@]4(O)[C@@H](C2)N(CC2CC2)CC[C@]314)CCCC6` [Compound 2, 17-cyclopropylmethyl-6,7-didehydro-4,5α-epoxy-3,14β-dihydroxy-6',7'-cyclohexeno-6,7,2',3'-indolomorphinan], for which the ED50 (usually the dose at which the effect has come halfway, by size or by number of responders) in assay [2] turned out to be 0.0395 mg/kg.

Regarding `Oc1ccc2c3c1O[C@H]1c4nc5ccccc5cc4C[C@@]4(O)[C@@H](C2)N(CC2CC2)CC[C@]314` [Compound 4, 17-cyclopropylmethyl-6,7-didehydro-4,5α-epoxy-3,14β-dihydroxy-6,7,2',3'-quinolinomorphinan], the ED50 in assay [2] turned out to be 0.984 mg/kg.

In the case of `Oc1ccc2c3c1O[C@H]1c4[nH]c5c(ccc6cnccc65)c4C[C@@]4(O)[C@@H](C2)N(CC2CC2)CC[C@]314` [Compound 5, 17-cyclopropylmethyl-6,7-didehydro-4,5α-epoxy-3,14β-dihydroxy-[6',7'-b]-pyrido-6,7,2',3'-indolomorphinan], in assay [2], the ED50 came to 0.0797 mg/kg.

On to `COc1ccc2c3c1O[C@H]1c4[nH]c5c(ccc6cnccc65)c4C[C@@]4(O)[C@@H](C2)N(CC2CC2)CC[C@]314` [Compound 6, 17-cyclopropylmethyl-6,7-didehydro-4,5α-epoxy-14β-hydroxy-3-methoxy-[6',7'-b]-pyrido-6,7,2',3'-indolomorphinan], for which, in assay [2], the ED50 amounted to 0.0413 mg/kg.

Consider `COc1ccc2c3c1O[C@H]1c4[nH]c5ccccc5c4C[C@@]4(O)[C@@H](C2)N(CC2CC2)CC[C@]314` [Compound 7, 17-cyclopropylmethyl-6,7-didehydro-4,5α-epoxy-14β-hydroxy-3-methoxy-6,7,2',3'-indolomorphinan], for which, in assay [2], the ED50 came to 0.0639 mg/kg.

Turning to `COc1cc(CNC(=O)CCCC/C=C/C(C)C)ccc1O` [capsaicin, reference compound], the “number of cough induced by inhalation of capsaicin” value in assay [1] (capsaicin 30 μM mist, 5 min inhalation) is 22.5±1.2 times/5 minutes.
